Source: ChEMBL document CHEMBL5260828, “Amphiphilic glycoconjugates as potential anti-cancer chemotherapeutics” (Eur J Med Chem, 2018)
Converted amounts (≈) assume the structure as drawn.

Key:
[1] = Inhibition of cell adhesion of human KM12-HX cells to TNF-alpha stimulated HUVEC cells incubated for 30 mins with HUVEC cells followed by [3H]thymidine labeled KM12-HX cells addition measured after 30 mins by radioactivity assay; format: functional, cell-based
[2] = Antimitotic activity against human U373 cells assessed as inhibition of cell proliferation by measuring inhibitory dose incubated for 48 hrs by [3H]-thymidine incorporation based liquid scintillation counting method; format: functional; details: U373 MG, read-out: ID50 (the source's name)
MCF7 [3] = test: Antiproliferative activity against human MCF7 cells assessed as inhibition of cell growth incubated for 48 hrs; format: functional, cell-based; details: MCF7, 48 h, pooled result: one value given for 9 cell lines, strains, targets or settings
DU-145 = test: Cytotoxicity against human DU-145 cells assessed as reduction in cell viability incubated for 48 hrs by MTS assay; format: functional, cell-based; details: DU-145, time 48 hrs
JIMT-1 = test: Cytotoxicity against human JIMT-1 cells assessed as reduction in cell viability incubated for 48 hrs by MTS assay; format: functional, cell-based; details: JIMT-1, time 48 hrs
MIA PaCa-2 = test: Cytotoxicity against human MIA PaCa-2 cells assessed as reduction in cell viability incubated for 48 hrs by MTS assay; format: functional, cell-based; details: MIA PaCa-2, time 48 hrs
BT-474 = test: Cytotoxicity against human BT-474 cells assessed as reduction in cell viability incubated for 48 hrs by MTS assay; format: functional, cell-based; details: BT-474, time 48 hrs
MCF-10A = test: Cytotoxicity against human MCF-10A cells assessed as cell growth inhibition incubated for 3 days by MTT assay; format: functional, cell-based; details: 72 h
[4] = Cytotoxicity against mouse NIH/3T3 cells assessed as cell growth inhibition incubated for 3 days by MTT assay; format: toxicity, cell-based, NIH3T3
[5] = Antimitotic activity against rat Astrocyte cells assessed as inhibition of cell proliferation by measuring inhibitory dose by [3H]-thymidine incorporation based […]; format: functional; details: read-out: ID50 (the source's name)
[6] = Antimitotic activity against rat Astrocytoma cell assessed as inhibition of cell proliferation by measuring inhibitory dose by [3H]-thymidine incorporation based […]; format: functional; details: read-out: ID50 (the source's name)
N2a = test: Antimitotic activity against mouse Neuro2a cells assessed as inhibition of cell proliferation by measuring inhibitory dose by [3H]-thymidine incorporation based […]; format: functional; details: read-out: ID50 (the source's name)
[7] = Antimitotic activity against rat RN 22 cells assessed as inhibition of cell proliferation by measuring inhibitory dose by [3H]-thymidine incorporation based […]; format: functional; details: read-out: ID50 (the source's name)
[8] = Cytotoxicity against human HEK293F cells; format: toxicity, cell-based
MKN-45 = test: Cytotoxicity against human MKN-45 cells; format: functional, cell-based
MOLT-4 = test: Cytotoxicity against human MOLT-4 cells; format: functional, cell-based
T-24 [9] = test: Cytotoxicity against human T24 cells assessed as cell viability; format: functional
T-24 [10] = test: Cytotoxicity against human T24 cells assessed as cell viability at 12.5 uM in presence of doxorubicin; format: functional; details: read-out: Activity
MCF7 [11] = test: Cytotoxicity against human MCF7 cells assessed as inhibition of cell growth incubated for 30 mins by MTT colorimetric assay; format: functional, cell-based; details: MCF7, 0.5 h
SMMC-7721 = test: Cytotoxicity against human SMMC-7721 cells assessed as inhibition of cell growth incubated for 30 mins by MTT colorimetric assay; format: functional, cell-based; details: SMMC-7721, 0.5 h
MG-63 = test: Cytotoxicity against human MG-63 cells assessed as inhibition of cell growth incubated for 30 mins by MTT colorimetric assay; format: functional, cell-based; details: MG-63, 0.5 h
MCF7 [12] = test: Growth inhibition of human MCF7 cells incubated for 72 hrs by sulforhodamine B staining assay; format: functional
[13] = Growth inhibition of mouse Lewis lung carcinoma cell line incubated for 72 hrs by sulforhodamine B staining assay; format: functional
L1210 = test: Growth inhibition of mouse L1210 cells incubated for 72 hrs by sulforhodamine B staining assay; format: functional
NCI/ADR-RES = test: Growth inhibition of human multi-drug resistant MCF7/Adr cells incubated for 72 hrs by sulforhodamine B staining assay; format: functional
MCF7 [14] = test: Antiproliferative activity against human MCF7 cells assessed as cell growth inhibition by measuring minimum inhibitory concentration incubated for 48 hrs by MTT assay; format: functional
BV-173 = test: Cytotoxicity against human BV-173 cells assessed as inhibition of cell growth incubated for 72 hrs by MTT assay; format: functional, cell-based; details: BV-173, 72 h
[15] = Cytotoxicity against human SKW-3 cells assessed as inhibition of cell growth incubated for 72 hrs by MTT assay; format: functional, cell-based; details: SKW3, 72 h
HL-60 = test: Cytotoxicity against human HL-60 cells assessed as inhibition of cell growth incubated for 72 hrs by MTT assay; format: functional, cell-based; details: HL-60, 72 h
[16] = Cytotoxicity against human JMSU-1 cells assessed as inhibition of cell growth incubated for 72 hrs by MTT assay; format: functional, cell-based; details: JMSU-1, 72 h

With CCCCCCCCCCCCCCC(CCCCCCCCCCCCCC)CO[C@@H]1O[C@H](CO)[C@@H](O[C@@H]2O[C@H](CO)[C@H](O)[C@H](OS(=O)(=O)O)[C@H]2O)[C@H](O[C@@H]2O[C@@H](C)[C@@H](O)[C@@H](O)[C@@H]2O)[C@H]1O the IC50 [1] was 300 µM.
Work on CCCCCCCCO[C@H]1O[C@H](COCC(CO)(CO)CO)[C@@H](O)[C@H](O)[C@H]1NC(C)=O yielded an IC50 [2] of 43 µM.
CCCCCCCCCCCCCCCCOC[C@H](CO[C@@H]1O[C@H](CO)[C@@H](O)[C@H](O)[C@H]1N)OC gave an IC50 (MCF7 [3]) of 4.1 µM, a CC50 (DU-145) of 10 µM and a CC50 (JIMT-1) of 9 µM. The CC50 (MIA PaCa-2) was 9 µM and the CC50 (BT-474) was 8 µM.
Molecule C/C=C(\C)C(=O)O[C@@H]1[C@@H](O)[C@@H]2O[C@H]3[C@H](O[C@@H](CCCCC)CCCCCCC(=O)CCC(=O)OC[C@@H](O2)[C@H]1OC(=O)/C=C/c1ccccc1)O[C@H](C)[C@H](OC(C)=O)[C@@H]3O has an IC50 (MCF-10A) of 5.4 nM and an IC50 at 3 days [4] of 16.8 nM.
In the case of CO[C@@H]1O[C@H](CO)[C@@H](O[C@@H]2O[C@H](CO)[C@H](O)[C@H](O[C@H]3O[C@H](CO)[C@H](O)[C@H](O)[C@H]3NC(C)=O)[C@H]2O)[C@H](O[C@@H]2O[C@@H](C)[C@@H](O)[C@@H](O)[C@@H]2O)[C@H]1O, the IC50 [5] is reported as 24 µM, the IC50 [6] is reported as 24 µM and the IC50 (N2a) is reported as 24 µM. It also gave an IC50 [7] of 24 µM.
For CCCCCCCC(=O)O[C@H]1[C@H](OC[C@H](O)[C@@H](O)[C@@H](O)[C@H](O)[C@H](O)CO)O[C@H](COC(=O)CCCCC)[C@@H](OC(=O)CCCCC)[C@@H]1OC(=O)CCCCC, the IC50 [8] was 21.8 µM, the IC50 (MKN-45) was 16 µM and the IC50 (MOLT-4) was 8.1 µM. The Activity (T-24 [9]) was 57.3% and the viability at 12.5 µM (T-24 [10]) was 36.9%.
In the case of CCCCC[C@@H](CCCCCCCCCC(=O)O[C@H]1[C@H](O[C@@H](CNc2ccc(OC)cc2)[C@@H](O)[C@H](O)[C@H](O)CO)O[C@@H](C)[C@H](OC(=O)[C@@H](C)[C@@H](C)O)[C@H]1O[C@@H]1O[C@@H](C)[C@H](O)[C@@H](O)[C@H]1O)O[C@@H]1OC[C@@H](O)[C@H](O)[C@H]1O[C@@H]1O[C@H](CO)[C@@H](O)[C@H](O)[C@H]1O[C@@H]1O[C@@H](C)[C@H](OC(=O)[C@H](C)[C@@H](C)O)[C@@H](O[C@@H]2O[C@@H](C)[C@H](O)[C@@H](O)[C@H]2O)[C@H]1OC(=O)CCCCCCCCC[C@@H](O)CCC, the IC50 (MCF7 [11]) is reported as 8.72 µg/mL (≈ 4.72 µM), the IC50 (SMMC-7721) is reported as 9.78 µg/mL (≈ 5.29 µM) and the IC50 (MG-63) is reported as 10.9 µg/mL (≈ 5.9 µM).
CCCCCCCCCCCCCCCCOC[C@H](CO[C@H]1C[C@@H](O)[C@H](O)[C@@H](CO)O1)OC gave a GI50 (MCF7 [12]) of 6.93 µM, a GI50 [13] of 11.1 µM and a GI50 (L1210) of 7.09 µM. It also gave a GI50 (NCI/ADR-RES) of 12.8 µM.
For CCCCCCCCCC[C@@H](CC(=O)O)OC(=O)C[C@H](CCCCCCCCCC)O[C@@H]1O[C@@H](C)[C@H](O)[C@@H](O)[C@H]1O, the MIC (MCF7 [14]) was 6.25 µg/mL (≈ 10.6 µM), the IC50 (BV-173) was 50 µM and the IC50 [15] was 54 µM. It also gave an IC50 (HL-60) of 67 µM and an IC50 [16] of 60 µM.
